Experimental data published in US11021507B2, “Myricetin derivative and preparing method thereof, and application of same for treating colitis, preventing and treating colitis tumorigenesis, and treating colorectal cancer” (MARINE BIOMEDICAL RESEARCH INSTITUTE OF QINGDAO CO., LTD., priority 2016, dated 2021).

What was measured:
[1] = system: azomethane (AOM)/dextran sulfate sodium (DSS)-induced chronic ulcerative colitis and inflammation-associated tumorigenesis; assay: AOM/DSS-induced chronic ulcerative colitis and inflammation-associated tumorigenesis in mice; assay type: in vivo, C57BL/6 mice
From the text: Determination of therapeutic effect of myricetin derivative M10 on azomethane (AOM)/dextran sulfate sodium (DSS)-induced chronic ulcerative colitis and inflammation-associated tumorigenesis.
Compound tested and control drugs: myricetin derivative M10, control compound myricetin, aspirin (Sigma).
Experimental animals: C57BL/6 mice, 20 to 22 g, both male and female, SPF grade provided by Beijing Vital Lihua Experimental Animal Company, and mice were fed with standard animal feed.
Animal models of AOM/DSS-induced chronic colitis and inflammation-associated tumorigenesis: 48 C57BL/6 mice were randomly divided into six groups with eight mice in each group, including model group, for which 0.5% CMC-Na was administered intragastrically every day; aspirin group, for which 100 mg/kg of aspirin (dissolved in 0.5% CMC-Na) was administered intragastrically; myricetin control group, for which 100 mg/kg of myricetin (dissolved in 0.5% CMCNa) was administered intragastrically; M10 high dose group, for which 100 mg/kg of M10 (dissolved in pure water) was administered intragastrically; M10 medium dose group, for which 50 mg/kg of M10 (dissolved in pure water) was administered intragastrically; M10 low dose group, for which 25 mg/kg of M10 (dissolved in pure water) was administered intragastrically.
Preparation of chronic ulcerative colitis mice model: said groups of mice were intraperitoneally injected with 10 mg/kg of azoxymethane (AOM) on day one. Purified drinking water containing 2% dextran sulfate sodium (DSS) was freshly made and provided on day one and on the next six consecutive days, the replaced by purified drinking water for the next seven consecutive days. The above procedure was then repeated for 3 more times.
M10-treated group: 200 mg of M10 was weighed and dissolved in 10 mL of 0.5% CMC-Na solution (20 mg/mL), and consecutively diluted 2 times and 5 times for future use. 0.2 mL of each prepared solutions was given intragastrically to mice (the body weight was assumed as 20 g per mouse), namely divided into high, medium or small dose groups. Myricetin control group: 200 mg of myricetin was weighed and dissolved in 10 mL of 0.5% CMC-Na. Aspirin-treated group: 200 mg of aspirin was weighed and dissolved in 10 mL of 0.5% CMC-Na. Administration method: The body weight of mice was measured daily, and drugs were administered at 0.01 mL/g (100 mg/kg) per day for 12 consecutive weeks. 4. Animal observation and treatment methods: weight, diet, diarrhea (or bloody stools) etc. were observed daily.
At the end of the experiment, mice were sacrificed. The colon and small intestine were dissected out for visual observation and pathological analysis. Pathological examination methods and evaluation criteria: the mice colons of each group were fixed with 10% formalin, followed by routine paraffin embedding, sectioning and HE staining. The developmental degree of colonic inflammation and colon cancer in each group of mice was evaluated under microscopic observation.

[2] = system: signaling molecules ATG3, ATG5, ATG7, ATG12, and ATG1611; assay: Cellular autophagy caused by AOM/DSS-induced endoplasmic reticulum stress in colonic epithelial cells (FIG. 10); assay type: in vivo, C57BL/6 mice
From the text: FIG. 10 illustrates the mechanism of M10 in inhibiting cellular autophagy and colonic epithelial cell proliferation and carcinogenesis caused by AOM/DSS-induced endoplasmic reticulum stress in Example 13;

[3] = system: endoplasmic reticulum stress signaling molecules GRP78, ATF6, PelF-2a and IREa; assay: AOM/DSS-induced endoplasmic reticulum stress in mouse colon (FIG. 9); assay type: in vivo, C57BL/6 mice
From the text: FIG. 9 illustrates the mechanism of M10 in inhibiting endoplasmic reticulum stress induced by AOM/DSS in Example 13;

[4] = Water solubility test (equilibrium solubility in pure water, LC/MS); assay type: physicochemical; details: 37° C.
Protocol: Water solubility test for myricetin derivative M5, M6 and M10
Instrument: Waters Alliance e2695 LC/MS; chromatographic column: Waters×Bridge C18 4.6×150 mm.
Appropriate amount of said myricetin derivative was weighed and dissolved in methanol to prepare a solution of 1 mg/ml respectively, which was diluted with methanol to different concentrations of working solution as standard samples for testing.
2. 1 mL of ultrapure water was added into a 1.5 ml transparent EP tube. Appropriate amount of said myricetin derivative was each added into a transparent EP tube, followed by vortex mixation and ultrasonication till the drug was no longer dissolved (the solution appeared cloudy or had suspended particles). The mixture was then placed in an incubating oscillator for shaking at the temperature of (37±1) ° C., 100 r/min, for 24 hours, to achieve a sufficient solubility balance. 24 hours later, the saturated solution was taken out for centrifugation at 3000 r/min for 15 min. The supernatant was immediately filtered through a 0.45 μm microporous membrane, and the initial part of the filtrate was discarded. Samples were added for chromatography. The peak area was measured and the equilibrium solubility of each compound in pure water was calculated using a standard curve.

KM mice = assay: Acute toxicity experiment, maximum tolerated dose in mice; assay type: in vivo
Protocol: Acute Toxicity Experiment on Myricetin Derivative M10, Testing Maximum Tolerated Dose in Mice.
Animal germ line: KM mice
The KM mice with quarantine conformity were selected for the experiment. 10 mice weighing 18 g-22 g each after fasting were randomly selected, labeled and housed in separate cages.
In accordance with the acute toxicity testing method in Healthy Food Inspection and Evaluation Technical Specifications (2003 edition), sample solutions were prepared and administered twice intragastrically within 24 hours with the maximum dose of 20 mL/kg. Mice were monitored 1, 4, 8, 24, 48, 72, 96, 120, 144, 168 and 336 hours respectively after drug administration, and the maximum tolerable dose in mice was calculated if no mouse died.

SMILES: O=c1c(O[C@@H]2O[C@H](CO)[C@@H](O[C@@H]3O[C@H](CO)[C@H](O)[C@H](O)[C@H]3O)[C@H](O)[C@H]2O)c(-c2cc(O)c(O)c(O)c2)oc2cc(O)cc(O)c12 [M10]
- Pathological analysis of colon tissue (colon cancer) ([1]; 100 mg/kg aspirin or myricetin, M10 25-100 mg/kg, 12 weeks, FIG. 8): significant activity of preventing and treating colon cancer
- Symptoms of AOM/DSS-induced chronic colitis (body weight loss, loose stools, blood in stool) ([1]; M10 25, 50 and 100 mg/kg intragastrically, 12 weeks): significantly alleviated
- Number of colon tumor nodules ([1]; all doses (25, 50, 100 mg/kg), after 12 weeks, FIG. 6 and FIG. 7): significantly reduced
- Loss of body weight induced by AOM/DSS ([1]; intragastric, 12 weeks, week 10 to 12, FIG. 4): significantly prevented
- Autophagic vacuoles in colonic epithelial cells with mitochondrial swelling ([2]; FIG. 10A): significantly alleviated
- Activation of signaling molecules ATG3, ATG5, ATG7, ATG12 and ATG1611 ([2]; FIG. 10B): significantly inhibited
- Swollen endoplasmic reticulum membrane, irregular fracture arrangement ([3]; FIG. 9A): significantly alleviated
- Activation of stress signaling molecules GRP78, ATF6, PelF-2a and IREa ([3]; FIG. 9B): significantly inhibited
- Solubility (in words) ([4]; 24 h, per Table 2): excellent solubility
- solubility at 24 h ([4]; ultrapure water, thermodynamic from solid): > 100 mg/mL
- Maximum tolerable dose in mice (KM mice; administered twice intragastrically within 24 hours, 0.02 mL/g, 250 mg/mL, 14 days observation): more than 5 g/kg
- Toxicity during whole observation period (KM mice; fourteen days observation): no obvious toxicity
- Death (KM mice; mouse, in vivo): No death
